Assay results taken from patent publication US20080103048A1, “Methods for the production of granular composite pesticidal compositions and the compositions produced thereby” (priority 2006, published 2008).

Experiment: Solubility of non-cyano containing pyrethroids in non-polar solvents
Type: physicochemical
Experimental: Specifically, samples were prepared in 4 ounce glass bottles by combining the non-cyano containing pyrethroids Bifenthrin Technical (supplied by FMC Corporation) and Permethrin Technical sold by Gharda USA, Inc with various non-polar solvents at 10%, 25% and 50% rates by mass (total mass of each sample being 40 grams) so that the 10% formulation contained 4 g of the pyrethroid and 36 g solvent; the 25% formulation contained 10 g of the pyrethroid and 30 g solvent; and the 50% formulation contained 20 g of the pyrethroid and 20 g solvent. Each of the resulting solutions was stirred vigorously in the bottles until a clear solution was obtained. The initial temperatures of the solutions in each of bottles was recorded before the bottles were heated on a laboratory hot plate Each of the solutions was stirred constantly while the solution was being heated on the hot plate and the solutions were frequently observed for signs of any visible separation between the solvent and the solute. […] The final temperature of the solutions in each of the bottles was recorded and it was noted that the temperature required to achieve full miscibility of the pyrethroids in the solvents was up to about 80° C.
In the following Table III, each of the non-cyano containing pyrethroids that were tested and each of the non-polar solvents which were employed with such pyrethroids are listed as well as the initial temperature of the solution and the final temperature resulting in full miscibility of the components.

[1] = Canola Oil (Stepsol ROW-W), 10% pyrethroid by mass
[2] = Canola Oil (Stepsol ROW-W), 25% pyrethroid by mass
[3] = Canola Oil (Stepsol ROW-W), 50% pyrethroid by mass
[4] = Polybutene H-7, 10% pyrethroid by mass
[5] = Polybutene H-7, 25% pyrethroid by mass
[6] = Polybutene H-7, 50% pyrethroid by mass
[7] = Polybutene H-8, 10% pyrethroid by mass
[8] = Polybutene H-8, 25% pyrethroid by mass
[9] = Polybutene H-8, 50% pyrethroid by mass
[10] = Polybutene L-14, 10% pyrethroid by mass
[11] = Polybutene L-14, 25% pyrethroid by mass
[12] = Polybutene L-14, 50% pyrethroid by mass
[13] = Polybutene L-50, 10% pyrethroid by mass
[14] = Polybutene L-50, 25% pyrethroid by mass
[15] = Polybutene L-50, 50% pyrethroid by mass
[16] = Safflower Oil, 10% pyrethroid by mass
[17] = Safflower Oil, 25% pyrethroid by mass
[18] = Safflower Oil, 50% pyrethroid by mass

| SMILES | Final Temp. (resulting in full miscibility) [1] | Final Temp. (resulting in full miscibility) [2] | Final Temp. (resulting in full miscibility) [3] | Final Temp. (resulting in full miscibility) [4] | Final Temp. (resulting in full miscibility) [5] | Final Temp. (resulting in full miscibility) [6] | Final Temp. (resulting in full miscibility) [7] | Final Temp. (resulting in full miscibility) [8] | Final Temp. (resulting in full miscibility) [9] | Final Temp. (resulting in full miscibility) [10] | Final Temp. (resulting in full miscibility) [11] | Final Temp. (resulting in full miscibility) [12] | Final Temp. (resulting in full miscibility) [13] | Final Temp. (resulting in full miscibility) [14] | Final Temp. (resulting in full miscibility) [15] | Final Temp. (resulting in full miscibility) [16] | Final Temp. (resulting in full miscibility) [17] | Final Temp. (resulting in full miscibility) [18] | solubility and stability in polybutene L-14 (over a range of concentrations) |
| --- | --- | --- | --- | --- | --- | --- | --- | --- | --- | --- | --- | --- | --- | --- | --- | --- | --- | --- | --- |
| Cc1c(COC(=O)[C@H]2[C@@H](/C=C(/Cl)C(F)(F)F)C2(C)C)cccc1-c1ccccc1 [Bifenthrin Tech., bifenthrin] | 45 °C | 57 °C | 74 °C | 45 °C | 41 °C | 41 °C | 37 °C | 50 °C | 36 °C | 30 °C | 40 °C | 43 °C | 37 °C | 35 °C | 43 °C | 80 °C | 80 °C | 80 °C | soluble and stable |
| CC1(C)C(C=C(Cl)Cl)C1C(=O)OCc1cccc(Oc2ccccc2)c1 (stereo not shown) [Permethrin Tech., permethrin] | 26 °C | 27 °C | 30 °C | 29 °C | 33 °C | 50 °C | 51 °C | 54 °C | 62 °C | 26 °C | 28 °C | 31 °C | 35 °C | 51 °C | 54 °C | 80 °C | 80 °C | 80 °C | – |
